Where “and” joins values, the source holds several entries; their conditions need not be identical. Equal entries are not always repeated. Entries after “also recorded” stand apart in the source; their conditions may differ.
Key:
[1] = test system: formalin-induced flinching behavior; settings: formalin model; i.p.; ref Holtman et al., 2010b; cited from earlier work
rotarod performance [2] = settings: ref Holtman et al., 2010b, cited from earlier work
mechanical hyperalgesia [3] = settings: chronic constriction injury; i.p.; ref Holtman et al., 2010b; cited from earlier work
tail flick latency = experiment: Thermal acute nociception; type: in vivo, rat; settings: for maximum possible effect: tail-flick
[4] = molecular target: α6/α3β4 nicotinic acetylcholine receptor (Rattus norvegicus, UniProt P04757+P12392+P43143); settings: 95% CI in parentheses
[5] = molecular target: α3β2 nicotinic acetylcholine receptor (Rattus norvegicus, UniProt P04757+P12390); settings: 95% CI in parentheses
[6] = molecular target: α3β4 nicotinic acetylcholine receptor (Rattus norvegicus, UniProt P04757+P12392); settings: 95% CI in parentheses
[7] = molecular target: α4β4 nicotinic acetylcholine receptor (Rattus norvegicus, UniProt P09483+P12392); settings: 95% CI in parentheses
[8] = molecular target: α4β2 nicotinic acetylcholine receptors (Rattus norvegicus, UniProt P09483+P12390)
[9] = test system: α4β2* nicotinic acetylcholine receptors; settings: binding assays; ref Zhang et al., 2008; cited from earlier work
[10] = molecular target: α6/α3β2β3 nicotinic acetylcholine receptor (Rattus norvegicus, UniProt P04757+P12390+P12391+P43143); settings: 95% CI in parentheses
[11] = molecular target: α9α10 nicotinic acetylcholine receptors (Rattus norvegicus, UniProt P43144+Q9JLB5)
[12] = test system: nicotinic acetylcholine receptor subtype; experiment: Agonist activity at nicotinic receptor subtypes in Xenopus oocytes; settings: any nicotinic acetylcholine receptor subtype evaluated; data not shown
[13] = molecular target: rat γ-aminobutyric acid(A) receptor; experiment: Competition radioligand binding, [3H]muscimol, rat brain membranes; settings: GABAA; [3H]muscimol 5 nM
[14] = molecular target: rat γ-aminobutyric acid(B)(1b,2) receptor (Rattus norvegicus, UniProt Q9Z0U4); experiment: Competition radioligand binding, [3H]CGP54626; settings: GABAB; [3H]CGP54626 2 nM
human μ-opioid receptor = human μ-opioid receptor (Homo sapiens, UniProt P35372); experiment: Competition radioligand binding, [3H]DAMGO; settings: 95% CI in parentheses
[15] = molecular target: α2β4 nicotinic acetylcholine receptor (Rattus norvegicus, UniProt P12389+P12392); settings: 95% CI in parentheses
[16] = molecular target: α2β2 nicotinic acetylcholine receptor (Rattus norvegicus, UniProt P12389+P12390); settings: 95% CI in parentheses
[17] = test system: nicotinic acetylcholine receptors mediating nicotine-evoked dopamine release; settings: ref Zhang et al., 2008; cited from earlier work
rat κ-opioid receptor = rat κ-opioid receptor (Rattus norvegicus, UniProt P34975); experiment: Competition radioligand binding, [3H]U69593; settings: 95% CI in parentheses
[18] = molecular target: T1, human serotonin(3) receptor (Homo sapiens, UniProt P46098); experiment: Competition radioligand binding, [3H]LY278584; settings: for Ki: 5HT3
T1 sequence (P46098 24-478): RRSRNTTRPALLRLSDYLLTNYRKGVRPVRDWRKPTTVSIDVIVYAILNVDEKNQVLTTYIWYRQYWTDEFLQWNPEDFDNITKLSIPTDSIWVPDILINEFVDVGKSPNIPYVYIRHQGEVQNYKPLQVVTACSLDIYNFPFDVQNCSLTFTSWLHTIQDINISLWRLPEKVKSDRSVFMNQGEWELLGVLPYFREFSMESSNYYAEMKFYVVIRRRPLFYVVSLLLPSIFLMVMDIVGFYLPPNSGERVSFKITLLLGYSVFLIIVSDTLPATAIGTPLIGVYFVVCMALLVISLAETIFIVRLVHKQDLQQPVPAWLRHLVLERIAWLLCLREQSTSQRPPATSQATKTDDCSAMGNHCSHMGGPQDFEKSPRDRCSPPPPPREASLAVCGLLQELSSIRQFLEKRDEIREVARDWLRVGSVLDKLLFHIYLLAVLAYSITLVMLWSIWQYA

[19] = test system: formalin-induced flinching behavior; experiment: Rodent model of inflammatory pain; type: in vivo, rat; settings: for ED50 (95% CI): formalin test, i.p. 15 min prior to formalin, rat
[20] = molecular target: α7 nicotinic acetylcholine receptors (Rattus norvegicus, UniProt Q05941); experiment: Voltage clamp electrophysiology, cloned α7 nicotinic receptor in Xenopus oocytes; settings: 95% CI in parentheses
[21] = molecular target: α1β1δε nicotinic acetylcholine receptor (Mus musculus, UniProt P02716+P04756+P09690+P20782); settings: 95% CI in parentheses
mechanical hyperalgesia [22] = experiment: Chronic constriction nerve injury model of neuropathic pain; type: in vivo, rat
rotarod performance [23] = experiment: Motor coordination; type: in vivo, rat
[24] = in vivo; cited from earlier work
[25] = chronic constriction injury paw, 3600 μg/kg i.p.

## c1cncc([C@@H]2CCCN2)c1 [S(−) nornicotine]
[1]
  ED50: 1.5 (0.6–3.6) mg/kg
Rotarod performance [2]; rotarod vs chronic constriction injury and formalin
  ED50 for motor impairment vs. analgesia, fold higher: 3–9 fold
Rotarod performance [2]; rotarod, motor impairment, i.p.
  ED50: 13.6 (9.2–19.9) mg/kg
Mechanical hyperalgesia [3]
  ED50: 5.2 (3.1–8.5) mg/kg

## C(#Cc1cc(C#CCCC[n+]2cccc(-c3ccccc3)c2)c(C#CCCC[n+]2cccc(-c3ccccc3)c2)cc1C#CCCC[n+]1cccc(-c2ccccc2)c1)CCC[n+]1cccc(-c2ccccc2)c1.[Br-].[Br-].[Br-].[Br-] [ZZ-204G, 5,5′,5″, 5‴-(1,2,4,5-benzenetetrayl)tetrakis-[1-(3-phenylpyridinium)-4-pentyne] tetrabromide]
Tail flick latency; 3.6, 36, 360 μg/kg i.p. vs saline
  antinociceptive effect in the tail-flick assay: not antinociceptive; also recorded: did not significantly differ from that of saline control
Tail flick latency; 3.6 μg/kg i.p.
  maximum possible effect: 8.4±4.6%
Tail flick latency; 36 μg/kg i.p.
  maximum possible effect: 6.2±1.75%
Tail flick latency; 360 μg/kg i.p.
  maximum possible effect: 15.6±2.4%
[4]
  Hill Slope: 1.2 (0.73–1.8)
[4]; oocytes, acetylcholine 100 μM
  IC50: 6.14 µM
[5]
  Hill Slope: 1.11 (0.28–1.9)
[5]; oocytes, acetylcholine 100 μM
  IC50: 0.75 µM
[6]
  Hill Slope: 1.56 (1.1–2.0)
[6]; oocytes, acetylcholine 100 μM
  IC50: 0.792 µM
[7]
  Hill Slope: 1.6 (0.99–2.2)
[7]; oocytes, acetylcholine 100 μM
  IC50: 1.73 µM
[8]; 100 nM compound
  block of acetylcholine-induced currents: ~ 5% and < 5%
[8]; 95% CI in parentheses
  Hill Slope: 1.05 (0.73–1.4)
[8]; oocytes, acetylcholine 100 μM, 95% CI in parentheses
  IC50: 3.83 µM
[9]
  affinity for α4β2* nicotinic acetylcholine receptors: poor affinity
[10]
  Hill Slope: 0.44 (0.33–0.56)
[10]; oocytes, acetylcholine 100 μM
  IC50: 0.0982 µM
[11]; α9α10, 10 nM compound, 0.01 µM
  inhibition of the acetylcholine response: 93.9 ± 1.4% and ~ 95%
[11]; α9α10, 100 nM compound, n=3, data not shown
  effect on current with Ca++ in buffer replaced with equimolar Ba++: abolished the current
[11]; α9α10, 95% CI in parentheses
  Hill Slope: 0.84 (0.59–1.1)
[11]; α9α10, washout of compound
  reversibility of block: Block was reversed upon washout
[11]; κ- and μ-opioid receptors vs α9α10
  potency at κ- and μ-opioid receptors, fold less than at α9α10: 1000 fold
[12]
  agonist activity: No agonist activity
[13]
  Ki: > 10 µM
[14]
  Ki: > 10 µM
Human μ-opioid receptor; μ-opioid binding
  Hill Slope: 1.1 (0.94–1.3)
Human μ-opioid receptor; μ-opioid, [3H]DAMGO 0.3 nM
  Ki: 0.659 µM
[15]
  Hill Slope: 1.36 (0.98–1.7)
[15]; oocytes, acetylcholine 100 μM
  IC50: 2.9 µM
[16]
  Hill Slope: 1.25 (0.98–1.5)
[16]; oocytes, acetylcholine 100 μM
  IC50: 2.33 µM
[17]
  antagonism at nicotinic receptors mediating nicotine-evoked dopamine release: weak antagonist
Rat κ-opioid receptor; κ-opioid binding
  Hill Slope: 0.95 (0.67–1.2)
Rat κ-opioid receptor; κ-opioid, [3H]U69593 0.3 nM
  Ki: 0.783 µM
[18]; [3H]LY278584 0.3 nM, 95% CI in parentheses
  Ki: 2.23 µM
[18]; displacing [3H]LY27854
  Ki: 2.2 µM
[18]; 5HT3 binding, 95% CI in parentheses
  Hill Slope: 1.05 (0.73–1.37)
[19]; the first phase (0–10 min)
  ED50 (95% CI): 16.2 (2.9–90.3) μg/kg
[19]; the second phase (20–60 min)
  ED50 (95% CI): 2.12 (1.24 – 5.65) μg/kg
[19]; formalin vs chronic constriction injury
  greater potency against formalin-evoked inflammatory pain than neuropathic pain: ~ 50 fold
[20]
  Hill Slope: 1.03 (0.48–1.6)
[20]; oocytes, acetylcholine 200 μM
  IC50: 0.0088 µM
[21]
  Hill Slope: 1.61 (1.2–2.1)
[21]; oocytes, acetylcholine 10 μM
  IC50: 0.12 µM
Mechanical hyperalgesia [22]; [25]
  maximum possible effect: 81.9±7.6%
  time maximum possible effect was maintained after administration: 240 min
  time to reach maximum possible effect: ≤ 60 min
Mechanical hyperalgesia [22]; chronic constriction injury, paw pressure test, mechanical hyperalgesia, i.p., rat
  ED50 (95% CL): 96.2 (35.7–255.3) μg/kg
Mechanical hyperalgesia [22]; chronic constriction injury, 3.6 μg/kg i.p.
  AUC0–120min (antihyperalgesic effect): 932.8±672.1
Mechanical hyperalgesia [22]; chronic constriction injury, 36 μg/kg i.p.
  AUC0–120min (antihyperalgesic effect): 1845.3±1008.0
Mechanical hyperalgesia [22]; chronic constriction injury, 360 μg/kg i.p.
  AUC0–120min (antihyperalgesic effect): 3126.6±840.9
Mechanical hyperalgesia [22]; chronic constriction injury, 3600 μg/kg i.p.
  AUC0–120min (antihyperalgesic effect): 6946.9±1632.2
Rotarod performance [23]; naïve rats, 3,600 ug/kg
  motor effect at highest antihyperalgesic dose: significant motor effect
Rotarod performance [23]; rotarod performance, intact rats, i.p.
  ED50 (95% CI), motor incoordination: 1884 (942–3767) μg/kg

## α-conotoxin Vc1.1
[24]
  adverse effects: did not produce any adverse effects
